Key:
[1] = Free flow preservation (caking) of OPA formulations on exposure to temperature and humidity; format: physicochemical; settings: for Caking tendency: 0 wt. % of anti-caking agent; for Time to caking: untreated
From the text: Samples of OPA containing 0.01-0.1% water were ground and mixed with various additives at levels of 0.2% to 5%. The samples were mixed on high-speed rollers for one hour followed by exposure to various temperatures and levels of humidity. The samples were examined at various time intervals for flow properties. Complete caking was defined as all sample stuck together in one solid block. For ease of interpretation and comparison, the following notation was used: 1) Formulations that caked in under two weeks were assigned one star (*); 2). Formulations that caked in two to four weeks were assigned two stars; 3) Formulations that caked in four to eight weeks were assigned three stars; 4) Formulations stable (flowable) over eight weeks were assigned four stars.

[2] = Flowability of OPA after one hour on high-speed rollers; format: physicochemical; settings: granular OPA in capped 100 ml jar, no additive
Procedure: Ortho-phthalic aldehyde (13.04 g, granular) was placed in a 100 ml jar. The jar was tightly capped and placed on high-speed rollers for one hour. […] The lid was removed and the sample was placed in a humidity oven set at 40° C. and 90% RH (relative humidity). After 4 hours of exposure the sample had no flow.
Ortho-phthalic aldehyde (10.04 g, granular) was placed in a 100 ml jar. The jar was tightly capped and placed on high-speed rollers for one hour. […] The lid was removed and the sample was placed in a humidity oven set at 30° C. and 90% RH (relative humidity).
Ortho-phthalic addehyde (12.04 g, granular) was placed in a 100 ml jar. The jar was tightly capped and placed on high-speed rollers for one hour. […] The lid was removed and the sample was placed in a humidity oven set at 40° C. and 70% RH (relative humidity).

Time to caking ([1]; 30° C. and 90% RH): one day | Time to caking ([1]; 40° C. and 90% RH): half a day | Flow after exposure ([1]; 4 hours at 40° C. and 70% RH): no free flow | Flow after exposure ([1]; 4 hours at 40° C. and 90% RH): no flow | Flow after exposure ([1]; 24 hours at 30° C. and 90% RH): no free flow | Flowability after one hour on high-speed rollers [2]: very poor flowability
SMILES: O=Cc1ccccc1C=O [Control, ortho-phthalic aldehyde]
Caking tendency ([1]; 22.5° C. and 65% RH): * (Formulations that caked in under two weeks were assigned one star (*)) | Caking tendency ([1]; 30° C. and 90% RH): * (Formulations that caked in under two weeks were assigned one star (*)) | Caking tendency ([1]; 40° C. and 70% RH): * (Formulations that caked in under two weeks were assigned one star (*)) | Caking tendency ([1]; 40° C. and 90% RH): * (Formulations that caked in under two weeks were assigned one star (*))

— patent US20040109897A1, “Free flowing solid antimicrobial composition” (priority 2002, published 2004)
